The test system of experiment [1] is Mycobacterium tuberculosis. Put plainly: Antimycobacterial activity against extensive drug Mycobacterium tuberculosis assessed as bacterial growth inhibition by LJ slant assay. The format is functional.
Experiment [2] deals with Mycobacterium tuberculosis. Put plainly: Antimycobacterial activity against multidrug Mycobacterium tuberculosis assessed as bacterial growth inhibition by LJ slant assay. The format is functional.
The subject of experiment [3] is Staphylococcus aureus. Put plainly: Antibacterial activity against Staphylococcus aureus assessed as zone of inhibition at 50 mg/ml cup plate assay. The format is functional. To be noted: read-out: IZ.
For experiment [4], the system named is Mycobacterium tuberculosis. Kind of experiment: Antimycobacterial activity against Mycobacterium tuberculosis H37Rv assessed as bacterial growth inhibition by LJ slant assay. The format is functional.
Experiment [5] deals with Escherichia coli. Kind of experiment: Antibacterial activity against Escherichia coli assessed as zone of inhibition at 50 mg/ml cup plate assay. The format is functional. The settings on record: read-out: IZ.
The subject of experiment [6] is Mycobacterium tuberculosis. Kind of experiment: Potency index, ratio of ciprofloxacin MIC to test compound MIC for antimycobacterial activity against Mycobacterium tuberculosis H37Rv assessed as bacterial growth inhibition by LJ slant assay. The format is functional.
The subject of experiment [7] is Escherichia coli. Put plainly: Antibacterial activity against Escherichia coli DSM-1116 assessed as bacterial growth inhibition by agar diffusion assay. The format is functional. In general terms: A growth-free zone around the sample is the usual read-out of agar diffusion tests.
Experiment [8] has as its system Escherichia coli. Kind of experiment: Antibacterial activity against efflux deficient Escherichia coli TolC assessed as bacterial growth inhibition by agar diffusion assay. The format is functional.
Experiment [9] concerns Staphylococcus aureus. Put plainly: Antibacterial activity against Staphylococcus aureus Newman assessed as bacterial growth inhibition by agar diffusion assay. The format is functional.
Experiment [10] has as its system Pseudomonas aeruginosa. Kind of experiment: Antibacterial activity against efflux deficient Pseudomonas aeruginosa DSM-30104 assessed as bacterial growth inhibition by agar diffusion assay. The format is functional.
Experiment [11] concerns Pseudomonas aeruginosa. Put plainly: Antibacterial activity against efflux deficient Pseudomonas aeruginosa PA14 assessed as bacterial growth inhibition by agar diffusion assay. The format is functional.
The next experiment deals with Proteus mirabilis. Put plainly: Antibacterial activity against efflux deficient Proteus mirabilis DSM-4479 assessed as bacterial growth inhibition by agar diffusion assay. The format is functional.
The test system of experiment [12] is Staphylococcus aureus. Kind of experiment: Antibacterial activity against Staphylococcus aureus clinical isolates assessed as bacterial growth inhibition measured after 16 to 24 hrs by broth microdilution assay. The settings on record: time 16-24 hrs. The format is functional. A general note: Dilution methods test growth across graded concentrations, often in twofold steps.

For a further experiment, the system named is Haemophilus parasuis. Kind of experiment: Antibacterial activity against Haemophilus parasuis clinical isolates assessed as bacterial growth inhibition measured after 16 to 24 hrs by broth microdilution assay. To be noted: Glaesserella parasuis; time 16-24 hrs. The format is functional.
The subject of experiment [13] is Staphylococcus aureus. Kind of experiment: Antibacterial activity against Staphylococcus aureus assessed as bacterial growth inhibition measured after 16 to 24 hrs by broth microdilution assay. The format is functional. To be noted: time 16-24 hrs.
The subject of experiment [14] is Staphylococcus epidermidis. Put plainly: Antibacterial activity against Staphylococcus epidermidis clinical isolates assessed as bacterial growth inhibition measured after 16 to 24 hrs by broth microdilution assay. The format is functional. To be noted: time 16-24 hrs.
For a further experiment, the system named is Streptococcus suis. Kind of experiment: Antibacterial activity against Streptococcus suis clinical isolates assessed as bacterial growth inhibition measured after 16 to 24 hrs by broth microdilution assay. The format is functional. The settings on record: time 16-24 hrs.
For another experiment, the system named is Enterococcus faecium. Put plainly: Antibacterial activity against Enterococcus faecium clinical isolates assessed as bacterial growth inhibition measured after 16 to 24 hrs by broth microdilution assay. The format is functional. The settings on record: time 16-24 hrs.
The test system of experiment [15] is Staphylococcus aureus. Kind of experiment: Antibacterial activity against methicillin resistant Staphylococcus aureus assessed as bacterial growth inhibition measured after 16 to 24 hrs by broth microdilution assay. The format is functional. The settings on record: time 16-24 hrs.
The test system of another experiment is Streptococcus agalactiae. Kind of experiment: Antibacterial activity against Streptococcus agalactiae assessed as bacterial growth inhibition measured after 16 to 24 hrs by broth microdilution assay. The format is functional. The settings on record: time 16-24 hrs.
Experiment [16] deals with Enterococcus faecalis. Kind of experiment: Antibacterial activity against Enterococcus faecalis assessed as bacterial growth inhibition measured after 16 to 24 hrs by broth microdilution assay. The format is functional. To be noted: time 16-24 hrs.
Experiment [17] concerns Streptococcus pneumoniae. Kind of experiment: Antibacterial activity against Streptococcus pneumoniae assessed as bacterial growth inhibition measured after 16 to 24 hrs by broth microdilution assay. The format is functional. To be noted: time 16-24 hrs.
The test system of experiment [18] is Enterococcus faecalis. Kind of experiment: Antibacterial activity against Enterococcus faecalis clinical isolates assessed as bacterial growth inhibition measured after 16 to 24 hrs by broth microdilution assay. The format is functional. The settings on record: time 16-24 hrs.
Experiment [19] deals with Streptococcus pneumoniae. Kind of experiment: Antibacterial activity against Streptococcus pneumoniae clinical isolates assessed as bacterial growth inhibition measured after 16 to 24 hrs by broth microdilution assay. To be noted: time 16-24 hrs. The format is functional.
Another experiment has as its system Enterococcus. Put plainly: Antibacterial activity against vancomycin resistant Enterococcus assessed as bacterial growth inhibition measured after 16 to 24 hrs by broth microdilution assay. The format is functional. The settings on record: time 16-24 hrs.
Another experiment concerns Haemophilus influenzae. Put plainly: Antibacterial activity against Haemophilus influenzae assessed as bacterial growth inhibition measured after 16 to 24 hrs by broth microdilution assay. The format is functional. To be noted: time 16-24 hrs.
In experiment [20] the test system is Staphylococcus haemolyticus. Put plainly: Antibacterial activity against Staphylococcus haemolyticus clinical isolates assessed as bacterial growth inhibition measured after 16 to 24 hrs by broth microdilution assay. The settings on record: time 16-24 hrs. The format is functional.
In experiment [21] the test system is Streptococcus pneumoniae. Kind of experiment: Antibacterial activity against Streptococcus pneumoniae assessed as zone of inhibition at 50 mg/ml by agar well diffusion assay. The format is functional. The settings on record: read-out: IZ.
Experiment [22] has as its system Enterococcus faecalis. Put plainly: Antibacterial activity against Enterococcus faecalis assessed as zone of inhibition at 50 mg/ml by agar well diffusion assay. The settings on record: read-out: IZ. The format is functional.
The test system of experiment [23] is Escherichia coli. Kind of experiment: Antibacterial activity against Escherichia coli assessed as zone of inhibition at 50 mg/ml by agar well diffusion assay. The format is functional. To be noted: read-out: IZ.
Experiment [24] concerns Staphylococcus aureus. Kind of experiment: Antibacterial activity against Staphylococcus aureus assessed as zone of inhibition at 50 mg/ml by agar well diffusion assay. The settings on record: read-out: IZ. The format is functional.
Experiment [25] has as its system Mycobacterium tuberculosis. Kind of experiment: Antimycobacterial activity against Mycobacterium tuberculosis H37Rv assessed as zone of inhibition at 50 mg/ml by agar well diffusion assay. The format is functional. To be noted: read-out: IZ.
The subject of experiment [26] is Mycobacterium tuberculosis. Kind of experiment: Antimycobacterial activity against Mycobacterium tuberculosis H37Rv assessed as bacterial growth inhibition. The format is functional.
A further experiment relates to MCF7. Put plainly: Anticancer activity against human MCF7 cell assessed as cell growth inhibition measured after 24 to 72 hrs by MTT assay. The format is functional, cell-based. In general terms: Tetrazolium dyes change colour on reduction, which living cells bring about.
Experiment [27] has as its system Pseudomonas aeruginosa. Put plainly: Antibacterial activity against Pseudomonas aeruginosa ATCC 11632 assessed as bacterial growth inhibition measured after 24 to 48 hrs by agar dilution assay. The format is functional. The settings on record: time 24-48 hrs.
The next experiment has as its system WRL68. Put plainly: Anticancer activity against human WRL68 cell assessed as cell growth inhibition measured after 24 to 72 hrs by MTT assay. The format is functional, cell-based.
Experiment [28] concerns Escherichia coli. Kind of experiment: Antibacterial activity against Escherichia coli ATCC 10536 assessed as bacterial growth inhibition measured after 24 to 48 hrs by agar dilution assay. The format is functional. The settings on record: time 24-48 hrs.
A short description of experiment [29]: Anticancer activity against EAC cell assessed as cell growth inhibition measured after 24 to 72 hrs by MTT assay. The format is functional, cell-based. The settings on record: Ehrlich.
In a further experiment the test system is HT-29. Kind of experiment: Anticancer activity against human HT-29 cell assessed as cell growth inhibition measured after 24 to 72 hrs by MTT assay. The format is functional, cell-based.
Another experiment has as its system Klebsiella pneumoniae. Put plainly: Antibacterial activity against Klebsiella pneumoniae assessed as bacterial growth inhibition by broth microdilution assay. The format is functional.
In experiment [30] the test system is Escherichia coli. Put plainly: Antibacterial activity against Escherichia coli assessed as bacterial growth inhibition by broth microdilution assay. The format is functional.
A further experiment relates to Acinetobacter baumannii. Put plainly: Antibacterial activity against Acinetobacter baumannii assessed as bacterial growth inhibition by broth microdilution assay. The format is functional.
In experiment [31] the test system is Pseudomonas aeruginosa. Put plainly: Antibacterial activity against Pseudomonas aeruginosa assessed as bacterial growth inhibition by broth microdilution assay. The format is functional.
The subject of experiment [32] is Staphylococcus aureus. Kind of experiment: Antibacterial activity against Staphylococcus aureus ATCC 6538p assessed as bacterial growth inhibition by agar dilution assay. The format is functional.
Experiment [33] has as its system Escherichia coli. Put plainly: Antibacterial activity against Escherichia coli ATCC 25922 assessed as bacterial growth inhibition by agar dilution assay. The format is functional.

Values after ≈ are worked out from the molar mass of the structure shown. Where only a bound is given, the exact number is not on record here.

Take `O=c1c(-c2nnc(S)o2)cn(C2CC2)c2cc(N3CCNCC3)c(F)cc12`: the MIC in experiment [1], in experiment [2] and in experiment [4] was 0.063 µg/mL (≈ 0.163 µM) in each case. For the same compound, the zone of inhibition at 50000 µg/mL was 13 mm with Staphylococcus aureus [3] and 12 mm in the experiment on Escherichia coli [5]. Besides, in [6], the Ratio entry is reported as “>=32”.

Regarding `N#Cc1c(-c2ccccc2)nc(SCC(=O)N2CCN(c3cc4c(cc3F)c(=O)c(C(=O)O)cn4C3CC3)CC2)[nH]c1=O`, the MIC with Escherichia coli [7], with Escherichia coli [8], in the experiment with Staphylococcus aureus [9], with Pseudomonas aeruginosa [10], with Pseudomonas aeruginosa [11] and with Proteus mirabilis was ≤ 0.03 µg/mL throughout.

Turning to `C[C@H]1CCc2c(N3CCC(O)(COc4ccc(N5C[C@H](CO)OC5=O)cc4F)CC3)c(F)cc3c(=O)c(C(=O)O)cn1c23`, the MIC in the experiment on Staphylococcus aureus [12] was ≤ 0.063 µg/mL; with Haemophilus parasuis it was ≤ 0.063 µg/mL; with Staphylococcus aureus [13] it was 0.016 µg/mL (≈ 0.0267 µM); in [14], ≤ 0.063 µg/mL; with Streptococcus suis, ≤ 0.063 µg/mL; with Enterococcus faecium, ≤ 0.063 µg/mL. The MIC with Staphylococcus aureus [15] is 0.016 µg/mL (≈ 0.0267 µM); in the experiment with Streptococcus agalactiae, 0.016 µg/mL (≈ 0.0267 µM); with Enterococcus faecalis [16] it was 0.016 µg/mL (≈ 0.0267 µM); in the experiment on Streptococcus pneumoniae [17], 0.016 µg/mL (≈ 0.0267 µM); in the experiment with Enterococcus faecalis [18], ≤ 0.063 µg/mL; in the experiment with Streptococcus pneumoniae [19], ≤ 0.063 µg/mL. The MIC in the experiment on Enterococcus was 0.016 µg/mL (≈ 0.0267 µM); in the experiment on Haemophilus influenzae, 0.016 µg/mL (≈ 0.0267 µM); in experiment [20], ≤ 0.063 µg/mL.

As for `CCn1cc(-c2nnc(S(=O)(=O)Cc3ccc(OC)cc3)o2)c(=O)c2cc(F)c(N3CCN(C)CC3)cc21`, the zone of inhibition at 50000 µg/mL (in the experiment on Streptococcus pneumoniae [21]; with Enterococcus faecalis [22]; in the experiment with Escherichia coli [23]; in the experiment with Staphylococcus aureus [24]; in [25]) was 26 mm each time. Besides, the MIC in experiment [26] was 16.2 µg/mL (≈ 29.9 µM).

As to `O=C(CNc1ccc(-c2nc3ccc(Cl)c(Cl)c3s2)cc1)c1c(O)c2ccccc2n(-c2ccccc2)c1=O`, the IC50 (in the experiment on MCF7; in the experiment on WRL68; in experiment [29]; in the experiment on HT-29) was 398 nM throughout. Also, the MIC in the experiment with Pseudomonas aeruginosa [27] is 1 µg/mL (≈ 1.75 µM); in the experiment on Escherichia coli [28], 0.5 µg/mL (≈ 0.873 µM).

Regarding `Cc1[nH]c(C(=O)Nc2nc3ccc(NC(=O)CCN4CCN(c5cc6c(cc5F)c(=O)c(C(=O)O)cn6C5CC5)CC4)cc3s2)c(Cl)c1Cl`, the MIC was found to be 0.25 µg/mL (≈ 0.344 µM) in the experiment on Klebsiella pneumoniae, 0.004 µg/mL (≈ 0.0055 µM) with Escherichia coli [30], 0.25 µg/mL (≈ 0.344 µM) in the experiment on Acinetobacter baumannii and 0.25 µg/mL (≈ 0.344 µM) in the experiment on Pseudomonas aeruginosa [31].

In the case of `Cc1cc(N2CCN(c3cc4c(cc3F)c(=O)c(C(=O)O)cn4C3CC3)CC2)nc(Cl)n1`, the MIC with Staphylococcus aureus [32] was found to be 7.4 µg/mL (≈ 16.2 µM); with Escherichia coli [33], 10.5 µg/mL (≈ 22.9 µM).

The term IC50 denotes the concentration that inhibits the measured activity by half.

Source of the values: ChEMBL document CHEMBL5360532, “Current scenario of quinolone hybrids with potential antibacterial activity against ESKAPE pathogens” (Eur J Med Chem, 2023).
